Tests used:
wheat = assay: Test B pre/postemergence wheat; format: in vivo, Triticum aestivum; conditions: for Wheat plant response rating: scale of 0 to 10 where 0 is no effect and 10 is complete control
Procedure, shortened: (§1)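 Response is a visual 0-to-10 score relative to untreated plants, where 0 means no effect and 10 means complete control, taken twelve to sixteen days after application. Treatments went onto soil at planting and onto foliage of 1- to 4-leaf plants, using a surfactant-containing non-phytotoxic solvent.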

surinam grass = assay: Test B pre/postemergence surinam grass; format: in vivo, Brachiaria decumbens; conditions: for B. signalgrass plant response rating: scale of 0 to 10 where 0 is no effect and 10 is complete control
Procedure, shortened: as §1

velvetleaf = assay: Test B pre/postemergence velvetleaf; format: in vivo, Abutilon theophrasti; conditions: for Velvetleaf plant response rating: scale of 0 to 10 where 0 is no effect and 10 is complete control
Procedure, shortened: as §1

rape = assay: Test B pre/postemergence rape; format: in vivo, Brassica napus; conditions: for Rape plant response rating: scale of 0 to 10 where 0 is no effect and 10 is complete control
Procedure, shortened: as §1

corn = assay: Test B pre/postemergence corn; format: in vivo, Zea mays; conditions: for Corn plant response rating: scale of 0 to 10 where 0 is no effect and 10 is complete control
Procedure, shortened: as §1

blackgrass = assay: Test B pre/postemergence blackgrass; format: in vivo, Alopecurus myosuroides; conditions: for Blackgrass plant response rating: scale of 0 to 10 where 0 is no effect and 10 is complete control
Procedure, shortened: as §1

pigweed = assay: Test B pre/postemergence pigweed; format: in vivo, Amaranthus retroflexus; conditions: for Redroot pigweed plant response rating: scale of 0 to 10 where 0 is no effect and 10 is complete control
Procedure, shortened: as §1

bedstraw = assay: Test B pre/postemergence bedstraw; format: in vivo, Galium aparine; conditions: for Bedstraw plant response rating: scale of 0 to 10 where 0 is no effect and 10 is complete control
Procedure, shortened: as §1

purple nutsedge = assay: Test B pre/postemergence purple nutsedge; format: in vivo, Cyperus rotundus; conditions: for Nutsedge plant response rating: scale of 0 to 10 where 0 is no effect and 10 is complete control
Procedure, shortened: as §1

cocklebur = assay: Test B pre/postemergence cocklebur; format: in vivo, Xanthium strumarium; conditions: for Cocklebur plant response rating: scale of 0 to 10 where 0 is no effect and 10 is complete control
Procedure, shortened: as §1

sugar beet = assay: Test B pre/postemergence sugar beet; format: in vivo, Beta vulgaris; conditions: for Sugarbeets plant response rating: scale of 0 to 10 where 0 is no effect and 10 is complete control
Procedure, shortened: as §1

wild oat = assay: Test B pre/postemergence wild oat; format: in vivo, Avena fatua; conditions: for Wild oats plant response rating: scale of 0 to 10 where 0 is no effect and 10 is complete control
Procedure, shortened: as §1

crabgrass = assay: Test B pre/postemergence crabgrass; format: in vivo, Digitaria sanguinalis; conditions: for Crabgrass plant response rating: scale of 0 to 10 where 0 is no effect and 10 is complete control
Procedure, shortened: as §1

giant foxtail = assay: Test B pre/postemergence giant foxtail; format: in vivo, Setaria faberii; conditions: for Giant foxtail plant response rating: scale of 0 to 10 where 0 is no effect and 10 is complete control
Procedure, shortened: as §1

morningglory = assay: Test B pre/postemergence morningglory; format: in vivo, Ipomoea hederacea; conditions: for Morningglory plant response rating: scale of 0 to 10 where 0 is no effect and 10 is complete control
Procedure, shortened: as §1

soybean = assay: Test B pre/postemergence soybean; format: in vivo, Glycine max; conditions: for Soybean plant response rating: scale of 0 to 10 where 0 is no effect and 10 is complete control
Procedure, shortened: as §1

[1] = Postemergence, Rate 125 g/ha, scale 0 to 10, 0 is no effect, 10 is complete control
[2] = Postemergence, Rate 250 g/ha, scale 0 to 10, 0 is no effect, 10 is complete control
[3] = Preemergence, Rate 62 g/ha, scale 0 to 10 (0 no effect, 10 complete control)
[4] = Rate 500 g/ha, Postemergence, scale 0 to 10, 0 no effect, 10 complete control

For CC(C)N(C(=O)n1oc(=O)n(C2(C)CC2)c1=O)c1ccc(Cl)cc1 [Compound 361], the “Plant response rating, Wheat” value (wheat; [1]) was 0, the “Plant response rating, Wheat” value (wheat; [2]) was 0 and the “Plant response rating, Wheat” value (wheat; [3]) was 0. For the same molecule, the “Wheat plant response rating (0 to 10 scale)” value (wheat; Preemergence, Rate 125 g/ha) was 0, the “Wheat plant response rating” value (wheat; Preemergence, Rate 250 g/ha) was 2 and the “Wheat plant response rating” value (wheat; Preemergence, Rate 500 g/ha) was 6. The “Wheat plant response rating” value (wheat; Rate 62 g/ha, Postemergence) was 0, the “Plant response rating, Wheat” value (wheat; [4]) was 2 and the “Plant response rating, B. signalgrass” value (surinam grass; [1]) was 0. The “Plant response rating, B. signalgrass” value (surinam grass; [2]) was 3, the “Plant response rating, B. signalgrass” value (surinam grass; [3]) was 3 and the “B. signalgrass plant response rating (0 to 10 scale, 0 is no effect, 10 is complete control)” value (surinam grass; Preemergence, Rate 125 g/ha) was 4. For the same molecule, the “B. signalgrass plant response rating” value (surinam grass; Preemergence, Rate 250 g/ha) was 4, the “B. signalgrass plant response rating” value (surinam grass; Preemergence, Rate 500 g/ha) was 6 and the “B. signalgrass plant response rating” value (surinam grass; Rate 62 g/ha, Postemergence) was 0. For the same molecule, the “Plant response rating, B. signalgrass” value (surinam grass; [4]) was 4, the “Plant response rating, Velvetleaf” value (velvetleaf; [1]) was 0 and the “Plant response rating, Velvetleaf” value (velvetleaf; [2]) was 0. The “Plant response rating, Velvetleaf” value (velvetleaf; [3]) was 0, the “Velvetleaf plant response rating (0 to 10 scale)” value (velvetleaf; Preemergence, Rate 125 g/ha) was 0 and the “Velvetleaf plant response rating” value (velvetleaf; Preemergence, Rate 250 g/ha) was 4. For the same molecule, the “Velvetleaf plant response rating” value (velvetleaf; Preemergence, Rate 500 g/ha) was 5, the “Velvetleaf plant response rating” value (velvetleaf; Rate 62 g/ha, Postemergence) was 0 and the “Plant response rating, Velvetleaf” value (velvetleaf; [4]) was 3. The “Plant response rating, Rape” value (rape; [1]) was 3, the “Plant response rating, Rape” value (rape; [2]) was 3 and the “Plant response rating, Rape” value (rape; [3]) was 4. For the same molecule, the “Rape plant response rating (0 to 10 scale)” value (rape; Preemergence, Rate 125 g/ha) was 5, the “Rape plant response rating” value (rape; Preemergence, Rate 250 g/ha) was 5 and the “Rape plant response rating” value (rape; Preemergence, Rate 500 g/ha) was 6. The “Rape plant response rating” value (rape; Rate 62 g/ha, Postemergence) was 2, the “Plant response rating, Rape” value (rape; [4]) was 4 and the “Plant response rating, Corn” value (corn; [1]) was 0. The “Plant response rating, Corn” value (corn; [2]) was 0, the “Plant response rating, Corn” value (corn; [3]) was 0 and the “Corn plant response rating (0 to 10 scale)” value (corn; Preemergence, Rate 125 g/ha) was 0. The “Corn plant response rating” value (corn; Preemergence, Rate 250 g/ha) was 1, the “Corn plant response rating” value (corn; Preemergence, Rate 500 g/ha) was 6 and the “Corn plant response rating” value (corn; Rate 62 g/ha, Postemergence) was 0. The “Plant response rating, Corn” value (corn; [4]) was 0, the “Plant response rating, Blackgrass” value (blackgrass; [1]) was 7 and the “Plant response rating, Blackgrass” value (blackgrass; [2]) was 8. For the same molecule, the “Plant response rating, Blackgrass” value (blackgrass; [3]) was 3, the “Blackgrass plant response rating (0 to 10 scale)” value (blackgrass; Preemergence, Rate 125 g/ha) was 8 and the “Blackgrass plant response rating” value (blackgrass; Preemergence, Rate 250 g/ha) was 10. For the same molecule, the “Blackgrass plant response rating” value (blackgrass; Preemergence, Rate 500 g/ha) was 10, the “Blackgrass plant response rating” value (blackgrass; Rate 62 g/ha, Postemergence) was 5 and the “Plant response rating, Blackgrass” value (blackgrass; [4]) was 8. The “Plant response rating, Redroot pigweed” value (pigweed; [1]) was 5, the “Plant response rating, Redroot pigweed” value (pigweed; [2]) was 6 and the “Plant response rating, Redroot pigweed” value (pigweed; [3]) was 1. For the same molecule, the “Redroot pigweed plant response rating (0 to 10 scale)” value (pigweed; Preemergence, Rate 125 g/ha) was 7, the “Redroot pigweed plant response rating” value (pigweed; Preemergence, Rate 250 g/ha) was 8 and the “Redroot pigweed plant response rating” value (pigweed; Preemergence, Rate 500 g/ha) was 10. The “Redroot pigweed plant response rating” value (pigweed; Rate 62 g/ha, Postemergence) was 3, the “Plant response rating, Redroot pigweed” value (pigweed; [4]) was 7 and the “Plant response rating, Bedstraw” value (bedstraw; [1]) was 7. The “Plant response rating, Bedstraw” value (bedstraw; [2]) was 8, the “Plant response rating, Bedstraw” value (bedstraw; [3]) was 0 and the “Bedstraw plant response rating (0 to 10 scale)” value (bedstraw; Preemergence, Rate 125 g/ha) was 0. The “Bedstraw plant response rating” value (bedstraw; Preemergence, Rate 250 g/ha) was 0, the “Bedstraw plant response rating” value (bedstraw; Preemergence, Rate 500 g/ha) was 2 and the “Bedstraw plant response rating” value (bedstraw; Rate 62 g/ha, Postemergence) was 7. The “Plant response rating, Bedstraw” value (bedstraw; [4]) was 8, the “Plant response rating, Nutsedge” value (purple nutsedge; [1]) was 0 and the “Plant response rating, Nutsedge” value (purple nutsedge; [2]) was 0. For the same molecule, the “Plant response rating, Nutsedge” value (purple nutsedge; [3]) was 0, the “Nutsedge plant response rating (0 to 10 scale)” value (purple nutsedge; Preemergence, Rate 125 g/ha) was 0 and the “Nutsedge plant response rating” value (purple nutsedge; Preemergence, Rate 250 g/ha) was 0. For the same molecule, the “Nutsedge plant response rating” value (purple nutsedge; Preemergence, Rate 500 g/ha) was 0, the “Nutsedge plant response rating” value (purple nutsedge; Rate 62 g/ha, Postemergence) was 0 and the “Plant response rating, Nutsedge” value (purple nutsedge; [4]) was 0. The “Plant response rating, Cocklebur” value (cocklebur; [1]) was 0, the “Plant response rating, Cocklebur” value (cocklebur; [2]) was 0 and the “Plant response rating, Cocklebur” value (cocklebur; [3]) was 0. The “Cocklebur plant response rating (0 to 10 scale)” value (cocklebur; Preemergence, Rate 125 g/ha) was 0, the “Cocklebur plant response rating” value (cocklebur; Preemergence, Rate 250 g/ha) was 0 and the “Cocklebur plant response rating” value (cocklebur; Preemergence, Rate 500 g/ha) was 0. For the same molecule, the “Cocklebur plant response rating” value (cocklebur; Rate 62 g/ha, Postemergence) was 0, the “Plant response rating, Cocklebur” value (cocklebur; [4]) was 2 and the “Plant response rating, Sugarbeets” value (sugar beet; [1]) was 5. The “Plant response rating, Sugarbeets” value (sugar beet; [2]) was 5, the “Plant response rating, Sugarbeets” value (sugar beet; [3]) was 0 and the “Sugarbeets plant response rating (0 to 10 scale)” value (sugar beet; Preemergence, Rate 125 g/ha) was 2. For the same molecule, the “Sugarbeets plant response rating” value (sugar beet; Preemergence, Rate 250 g/ha) was 6, the “Sugarbeets plant response rating” value (sugar beet; Preemergence, Rate 500 g/ha) was 6 and the “Sugarbeets plant response rating” value (sugar beet; Rate 62 g/ha, Postemergence) was 2. For the same molecule, the “Plant response rating, Sugarbeets” value (sugar beet; [4]) was 6, the “Plant response rating, Wild oats” value (wild oat; [1]) was 2 and the “Plant response rating, Wild oats” value (wild oat; [2]) was 6. The “Plant response rating, Wild oats” value (wild oat; [3]) was 7, the “Wild oats plant response rating (0 to 10 scale)” value (wild oat; Preemergence, Rate 125 g/ha) was 8 and the “Wild oats plant response rating” value (wild oat; Preemergence, Rate 250 g/ha) was 8. The “Wild oats plant response rating” value (wild oat; Preemergence, Rate 500 g/ha) was 10, the “Wild oats plant response rating” value (wild oat; Rate 62 g/ha, Postemergence) was 0 and the “Plant response rating, Wild oats” value (wild oat; [4]) was 6. For the same molecule, the “Plant response rating, Crabgrass” value (crabgrass; [1]) was 2, the “Plant response rating, Crabgrass” value (crabgrass; [2]) was 2 and the “Plant response rating, Crabgrass” value (crabgrass; [3]) was 2. The “Crabgrass plant response rating (0 to 10 scale)” value (crabgrass; Preemergence, Rate 125 g/ha) was 7, the “Crabgrass plant response rating” value (crabgrass; Preemergence, Rate 250 g/ha) was 7 and the “Crabgrass plant response rating” value (crabgrass; Preemergence, Rate 500 g/ha) was 9. The “Crabgrass plant response rating” value (crabgrass; Rate 62 g/ha, Postemergence) was 0, the “Plant response rating, Crabgrass” value (crabgrass; [4]) was 5 and the “Plant response rating, Giant foxtail” value (giant foxtail; [1]) was 4. For the same molecule, the “Plant response rating, Giant foxtail” value (giant foxtail; [2]) was 5, the “Plant response rating, Giant foxtail” value (giant foxtail; [3]) was 7 and the “Giant foxtail plant response rating (0 to 10 scale)” value (giant foxtail; Preemergence, Rate 125 g/ha) was 9. For the same molecule, the “Giant foxtail plant response rating” value (giant foxtail; Preemergence, Rate 250 g/ha) was 10, the “Giant foxtail plant response rating” value (giant foxtail; Preemergence, Rate 500 g/ha) was 10 and the “Giant foxtail plant response rating” value (giant foxtail; Rate 62 g/ha, Postemergence) was 1. For the same molecule, the “Plant response rating, Giant foxtail” value (giant foxtail; [4]) was 5, the “Plant response rating, Morningglory” value (morningglory; [1]) was 2 and the “Plant response rating, Morningglory” value (morningglory; [2]) was 7. The “Plant response rating, Morningglory” value (morningglory; [3]) was 0, the “Morningglory plant response rating (0 to 10 scale)” value (morningglory; Preemergence, Rate 125 g/ha) was 0 and the “Morningglory plant response rating” value (morningglory; Preemergence, Rate 250 g/ha) was 0. For the same molecule, the “Morningglory plant response rating” value (morningglory; Preemergence, Rate 500 g/ha) was 0, the “Morningglory plant response rating” value (morningglory; Rate 62 g/ha, Postemergence) was 1 and the “Plant response rating, Soybean” value (soybean; [1]) was 4. For the same molecule, the “Plant response rating, Soybean” value (soybean; [2]) was 5, the “Plant response rating, Soybean” value (soybean; [3]) was 0 and the “Soybean plant response rating (0 to 10 scale)” value (soybean; Preemergence, Rate 125 g/ha) was 0. The “Soybean plant response rating” value (soybean; Preemergence, Rate 250 g/ha) was 0, the “Soybean plant response rating” value (soybean; Preemergence, Rate 500 g/ha) was 1 and the “Soybean plant response rating” value (soybean; Rate 62 g/ha, Postemergence) was 2. For the same molecule, the “Plant response rating, Soybean” value (soybean; [4]) was 5.
